Data on 68 compounds can be found in PMC9959553, “Promising Antifungal Molecules against Mucormycosis Agents Identified from Pandemic Response Box®: In Vitro and In Silico Analyses” (Journal of Fungi, 2023).

For the experiment, the system named is R. oryzae UCP1295. Kind of experiment: Screening of the Pandemic Response Box library at 5 µM. In kind it is cell-based, Rhizopus oryzae. The conditions noted are these: 48 h, Table S1, mean of the four values. The essentials:
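Growth inhibition was read at 600 nm after conidia (2 × 10^5/mL) grew 48 h at 37 °C, 5% CO2, with 5 μM compound in glucose-supplemented (2%), MOPS-buffered RPMI (pH 7.2). Controls were posaconazole at 5 μM and 1% DMSO. The selection cut-off was at least 60% inhibition.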
As for `N#CCN1C(=O)COc2cc(F)c(N3C(=O)c4ccccc4C3=O)cc21` [MMV1579785], the “% of growth inhibition, Mean” value is recorded as -18.3%. For `O=C(CCc1ccc2c(c1)OCO2)NCc1ccc(-c2ccccc2F)cc1` [MMV1782110] the value was -2.8%. As for `CCOC(=O)N[C@@H]1CC[C@@H]2[C@@H](C1)C[C@H]1C(=O)O[C@H](C)[C@H]1[C@H]2/C=C/c1ccc(-c2cccc(F)c2)cn1` [MMV1593515], the “% of growth inhibition, Mean” value turned out to be 26.6%. Take `CCCCCOc1ccc(/C=C2\Oc3c(ccc(O)c3O)C2=O)c(O)c1` [MMV1580851]: the “% of growth inhibition, Mean” value is on record as -13.7%.

For `CC(C)N(c1cc(-c2ccccc2)sc1C(=O)O)C(=O)[C@H]1CC[C@H](C)CC1` [MMV1634388], the “% of growth inhibition, Mean” value is listed as -4.7%. Consider `O=C(NC(=O)N1CCCc2ccccc21)c1ccc(Cl)cc1Cl` [MMV1782218], for which the “% of growth inhibition, Mean” value is reported as -21.0%. For `N[C@@H]1CN(c2c(F)cc3c(=O)c(C(=O)O)cn([C@@H]4C[C@@H]4F)c3c2Cl)CC12CC2` [MMV1579850] the value was -4.9%; for `C=C[C@]1(C)C[C@@H](OC(=O)CS[C@@H]2C[C@H]3CC[C@@H](C2)N3C)[C@]2(C)[C@H](C)CC[C@]3(CCC(=O)[C@H]32)[C@@H](C)[C@@H]1O` [MMV1633674], -19.9%. As for `COc1cc(C(C)(C)CCCC(C)C)cc(OC)c1OC` [MMV1782102], the figure is -11.2%; as for `c1cc(CN2CCCNCCNCCCNCC2)ccc1CN1CCCNCCNCCCNCC1` [MMV1580502], 52.2%; as for `OB1OCc2cc(Cl)ccc21` [MMV1634363], -17.9%. Regarding `Nc1cc(N)c2nc(-c3ccccc3)c(Nc3ccc(F)cc3)nc2c1` [MMV1581554], the “% of growth inhibition, Mean” value is on record as -29.5%. For `O=C(c1cc(O)nc2ccccc12)N1CCN(c2ccccc2)CC1` [MMV596723] the value was -7.3%; for `O=C(c1nc2c(C(F)(F)F)cc(C3CC3)cn2c1Cl)N1CCN([C@H]2CC[C@H](O)CC2)C(=O)C1` [MMV1634396], -11.9%. As to `Nc1nc(C(F)(F)F)cc2c1[nH]c(=O)n2Cc1ccccc1` [MMV1634389], the “% of growth inhibition, Mean” value is on record as 10.3%. As for `COc1c(NC(=O)[C@H]2CC[C@@H](COc3ccc([N+](=O)[O-])cc3)CC2)c(F)cc2c(=O)c(C(=O)O)cn(C3CC3)c12` [MMV1633965], the figure is -11.6%; as for `CC(C)N=c1cc2n(-c3ccc(Cl)cc3)c3ccccc3nc-2cc1Nc1ccc(Cl)cc1` [MMV687800], -1.7%. Take `Cc1cccc(CC(=O)N[C@H]2CCOC2=O)c1` [MMV1579782]: the “% of growth inhibition, Mean” value is listed as -2.1%. For the compound `CC1(C)CC(NC(=O)C(=O)Nc2ccc(Cl)cc2)CC(C)(C)N1` [MMV1580501], the “% of growth inhibition, Mean” value is on record as -11.4%. As for `CC(=O)Nc1cc(NS(=O)(=O)c2ccc(Cl)cc2)cc2c(Cl)n[nH]c12` [MMV1579779], the figure is -33.3%; as for `CC(C)Oc1cccc(NC(=O)c2ccccc2C(F)(F)F)c1` [MMV1009286], -12.9%.

On to `CC(C)(C)NC(=O)[C@@H]1CN(Cc2cnc3occc3c2)CCN1C[C@@H](O)C[C@@H](Cc1ccccc1)C(=O)N[C@H]1c2ccccc2C[C@H]1O` [MMV1782353], for which the “% of growth inhibition, Mean” value is -11.2%. As for `Cc1ccc(S(=O)(=O)Nc2cccc3cccnc23)cc1` [MMV233495], the figure is -0.4%; as for `CC(C)(C)c1ccc(OCCn2nc(C(=O)O)c3ccccc3c2=O)cc1` [MMV1634387], -15.4%. For `CCCCCCCCCN1C[C@@H](O)[C@H](O)[C@@H](O)[C@@H]1CO` [MMV1593513] the value was -2.2%; for `COc1ccccc1CN[C@H]1C2CCN(CC2)[C@H]1C(c1ccccc1)c1ccccc1` [MMV690480], -1.8%. As for `Nc1ccc(-c2nc3cc(C(F)(F)F)ccc3n2C23CC4CC(CC(C4)C2)C3)cc1` [MMV1634385], the figure is -6.2%; as for `C[C@@H](c1nc(-c2ccc(C#N)cc2)cs1)[C@](O)(Cn1cncn1)c1ccc(F)cc1F` [MMV1634362], -36.2%. Regarding `O=c1[nH]cnc2c1ncn2[C@H]1CC[C@@H](CO)O1` [MMV637306], the “% of growth inhibition, Mean” value is reported as -2.1%. As for `O=C(CCCC(F)(F)F)N1CCC(c2nc(-c3nccs3)no2)CC1` [MMV1582491], the figure is -26.7%; as for `CCC(C)NCC(O)Cn1c2ccc(Cl)cc2c2cc(Cl)ccc21` (centres unmarked) [MMV1578570], -22.7%; as for `Clc1cc(Cl)c2c(c1)CCc1ccccc1C2n1ccnc1` (centres unmarked) [MMV1634492], -30.6%. For `O=c1cc(Nc2ccc3ccccc3c2)[nH]c(=O)[nH]1` [MMV1581546] the value was -6.0%; for `Cl.N=C(N)c1ccc(COc2ccc(Cl)cc2)cc1` [MMV1579844], -3.3%. For `CC1(C)Cc2c(C#N)c(SCCc3ccccc3)nc(N3CCOCC3)c2CO1` [MMV1549626] the value was -26.0%; for `CCCC1(C2CC2)c2cc(Cl)ccc2NC(=O)N1C` (centres unmarked) [MMV1782113], -5.2%. Consider `CN(Cc1ccc(C(C)(C)C)cc1)Cc1cccc2ccccc12.Cl` [MMV637104], for which the “% of growth inhibition, Mean” value is -30.4%. With `Cc1cc(-c2ccccc2)c(C(=O)C(=O)Nc2ccc(N3CCN(c4ncc(F)cn4)CC3)cc2)n1C` [MMV1782354], the “% of growth inhibition, Mean” value is -38.2%. For `O=c1cc(OCc2ccccc2)ccn1Cc1ccccc1` [MMV1579775] the value was -7.1%. In the case of `C=CCN(C(=O)OCc1ccc([N+](=O)[O-])cc1)C1CCN(CC[C@](C)(CN(C)S(=O)(=O)c2ccccc2)c2ccccc2)CC1` [MMV1782214], the “% of growth inhibition, Mean” value was found to be 14.4%. As for `CCc1cc(O)c(Oc2cccnc2N)cc1F` [MMV1580854], the figure is -36.7%. As for `NC(=O)C(c1ccccc1)(c1ccccc1)[C@H]1CCCN(CCc2ccc3c(c2)CCO3)C1` [MMV1782412], the figure is -1.5%; as for `Fc1ccc2c(/C=C/c3nnn[nH]3)c[nH]c2c1` [MMV1578563], -0.5%; as for `Cc1onc(-c2ccccc2Cl)c1C(=O)N[C@@H]1C(=O)N2[C@@H]1SC(C)(C)[C@@H]2C(=O)O` [MMV002740], -27.0%. Consider `O=C(O)c1ccccc1Sc1ncnc2sc3c(c12)CCC3` [MMV1579878], for which the “% of growth inhibition, Mean” value was -41.9%. As for `c1cnc(NCc2ccc(CNc3ncccn3)cc2)nc1` [MMV1580490], the figure is -10.6%; as for `CCN(CC)CCCC(C)Nc1ccnc2cc(Cl)ccc12` (centres unmarked) [MMV000008], -3.5%. For `CCOC(=O)/C=C/[C@H](C[C@@H]1CCNC1=O)NC(=O)[C@H](CC)n1cccc(NC(=O)c2cc(C)on2)c1=O` [MMV1782112] the value was -11.8%; for `CCc1cc(CCC(=O)Nc2ccccc2O)c(=O)[nH]c1C` [MMV1782106], -2.0%; for `CN1c2ccc(Cl)cc2N(c2ccccc2)C(=O)c2cn(Cc3ccc(CN4CCOCC4)cc3)nc21` [MMV1782222], 3.4%. Consider `Nc1ccc2oc(=O)ccc2c1I` [MMV1581378], for which the “% of growth inhibition, Mean” value is listed as -3.7%. For `NC(=S)N/N=C/c1ncccc1N` [MMV1580496], the “% of growth inhibition, Mean” value is reported as -9.1%. As for `CC(C)n1cnc2c(NCc3ccccc3)nc(NCc3ccccc3)nc21` [MMV1579780], the figure is -15.2%; as for `C[Si]1(C)CCN(Cc2cc(-c3ccc(Cl)cc3)n(-c3ccc(Cl)cc3)n2)CC1` [MMV1580843], -17.9%.

For `CCC[C@H](NC(=O)[C@@H]1[C@H]2CCC[C@H]2CN1C(=O)[C@@H](NC(=O)[C@@H](NC(=O)c1cnccn1)C1CCCCC1)C(C)(C)C)C(=O)C(=O)NC1CC1` [MMV1580494], the “% of growth inhibition, Mean” value is listed as -15.1%. With `Oc1ccc2[nH]c(-c3ccccc3)nc2c1` [MMV292173], the “% of growth inhibition, Mean” value is given as -15.4%. For `Cc1nc(-c2ccc(C3N(C)c4ccc(F)cc4C(=O)N3c3ccccc3)s2)cs1` (centres unmarked) [MMV1582492] the value was -6.7%; for `O=C1[C@H](CC[C@H](O)c2ccc(F)cc2)[C@@H](c2ccc(O)cc2)N1c1ccc(F)cc1` [MMV1581377], 3.5%. As for `O=C(Nc1ccc(N2CCN(C(=O)c3ccccc3)CC2)cc1)c1ccc2c(c1)OCO2` [MMV1580505], the figure is -9.9%; as for `O=C(Nc1cccc(C2=NCCN2)c1)c1ccc(-c2ccc(C(=O)Nc3cccc(C4=NCCN4)c3)cc2)cc1` [MMV1580853], -34.0%; as for `O=C(NCc1ncc(C(F)(F)F)cc1Cl)c1c(Cl)cccc1Cl` [MMV689401], -36.5%. As for `CC(C)(C)OC(=O)NCc1ccc(C(=O)N[C@H]2CCOC2=O)cc1` [MMV1581547], the figure is -3.1%; as for `CCc1c(O)nc2ccc(F)cc2c1OCC1CCC1` [MMV1634395], -20.7%.

As to `CC(C)(C)c1ccc(Oc2ccc(N)cc2)cc1` [MMV1174026], the “% of growth inhibition, Mean” value is -12.8%. Consider `Nc1nc2c(ncn2[C@@H]2O[C@H](CO)[C@@H](O)[C@H]2F)c(=O)[nH]1` [MMV1633677], for which the “% of growth inhibition, Mean” value is recorded as -10.0%. For `CC(=N)N1CC[C@H](SC2=C(C(=O)O)N3C(=O)[C@@H]([C@@H](C)O)[C@H]3C2)C1` [MMV1582382], the “% of growth inhibition, Mean” value is on record as -12.0%. As for `NC(=O)c1ccccc1NC(=O)c1ccc(C(=O)Nc2ccccc2C(N)=O)cc1` [MMV508427], the figure is -9.9%; as for `CCN1CCN(Cc2nc3ccc([N+](=O)[O-])cc3c(=O)n2-c2ccccc2F)CC1` [MMV275100], -8.8%.
